Results reported in the NIST ThermoML archive (doi:10.1016/j.jct.2004.10.011).

Settings: Liquid, Vibrating tube method

CCC(=O)c1ccccc1 [ethyl phenyl ketone]
mass density [kg/m3]
Settings | 298.15 K | 308.15 K | 318.15 K | 328.15 K
100 kPa | 1005.3 | 996.8 | 988.3 | 979.6
2130 kPa | 1006.4 | 998 | 989.6 | 981.1
4150 kPa | 1007.5 | 999.2 | 990.9 | 982.4
6180 kPa | 1008.7 | 1000.4 | 992.1 | 983.7
8210 kPa | 1009.8 | 1001.6 | 993.3 | 985
10230 kPa | 1010.9 | 1002.8 | 994.6 | 986.2
11250 kPa | 1011.5 | 1003.4 | 995.2 | 986.9
12260 kPa | 1012.1 | 1003.9 | 995.8 | 987.5
14290 kPa | 1013.2 | 1005.1 | 997 | 988.7
16310 kPa | 1014.3 | 1006.2 | 998.1 | 990
18340 kPa | 1015.3 | 1007.3 | 999.3 | 991.2
20370 kPa | 1016.4 | 1008.4 | 1000.4 | 992.3
22390 kPa | 1017.5 | 1009.5 | 1001.6 | 993.5
24420 kPa | 1018.5 | 1010.6 | 1002.7 | 994.7
26450 kPa | 1019.5 | 1011.7 | 1003.8 | 995.9
28470 kPa | 1020.5 | 1012.8 | 1004.9 | 997.1
29490 kPa | 1021 | 1013.2 | 1005.5 | 997.6
30500 kPa | 1021.6 | 1013.8 | 1006 | 998.2
32530 kPa | 1022.5 | 1014.8 | 1007.1 | 999.3
34550 kPa | 1023.5 | 1015.8 | 1008.2 | 1000.4
36580 kPa | 1024.5 | 1016.8 | 1009.2 | 1001.5
38600 kPa | 1025.5 | 1017.9 | 1010.3 | 1002.6
39620 kPa | 1025.9 | 1018.3 | 1010.8 | 1003.2

Cc1ccccc1 [toluene]
mass density [kg/m3]
Settings | 298.15 K | 308.15 K | 318.15 K | 328.15 K
100 kPa | 862.1 | 853 | 843.8 | 834.5
2130 kPa | 863.6 | 854.5 | 845.6 | 836.5
4150 kPa | 865.2 | 856.2 | 847.3 | 838.3
6180 kPa | 866.7 | 857.8 | 849 | 840.1
8210 kPa | 868.2 | 859.3 | 850.6 | 841.8
10230 kPa | 869.6 | 860.9 | 852.3 | 843.5
11250 kPa | 870.4 | 861.7 | 853.1 | 844.4
12260 kPa | 871.1 | 862.4 | 853.9 | 845.2
14290 kPa | 872.5 | 863.9 | 855.4 | 846.9
16310 kPa | 873.9 | 865.4 | 857 | 848.6
18340 kPa | 875.3 | 866.8 | 858.5 | 850.1
20370 kPa | 876.7 | 868.2 | 860 | 851.7
22390 kPa | 878 | 869.6 | 861.5 | 853.3
24420 kPa | 879.3 | 871 | 862.9 | 854.8
26450 kPa | 880.6 | 872.4 | 864.4 | 856.3
28470 kPa | 881.9 | 873.8 | 865.8 | 857.8
29490 kPa | 882.5 | 874.4 | 866.5 | 858.5
30500 kPa | 883.2 | 875 | 867.2 | 859.3
32530 kPa | 884.4 | 876.3 | 868.5 | 860.7
34550 kPa | 885.6 | 877.6 | 869.9 | 862.1
36580 kPa | 886.8 | 878.9 | 871.2 | 863.5
38600 kPa | 888 | 880.1 | 872.5 | 864.9
39620 kPa | 888.6 | 880.7 | 873.2 | 865.5
